We go through two compounds from US20140296146A1, “Thermostable Inhibitors of Activation of the Blood Clotting System Through Contact with Foreign Surfaces” (Synapse B.V., priority 2011, published 2014).

Where a SMILES comes first, the peptide text is derived from it. Bridges are numbered along the chain shown (N, C = ends).

The Ki is a measure of affinity in units of concentration, obtained from inhibition or displacement. A higher Ki goes with weaker binding.

One data set deals with contact activation. Briefly: Thrombin generation (CAT) in platelet poor plasma contact activated with kaolin. It counts as biochemical, human. The note with it: concentration that prolongs clotting time of kaolin contact activated plasma four times. How it is done: Thrombin generation was carried out according to WO2003/093831.
Following a double centrifugation at 2500×g for 15 min at room temperature, platelet poor plasma (PPP) was collected from the upper half volume of plasma supernatant, quick frozen and stored at −80° C. The absence of platelet and leucocyte in PPP was checked with an ADVIA 120 counter (Bayer Diagnostics, NY, USA).
Recombinant human tissue factor Innovin® was obtained from Dade Behring (Marburg, Germany) and used at a final concentration of 0.5 pM in PRP and 1 or 5 pM in PPP samples. The phospholipid vesicles used at a final concentration of […] were obtained from Avanti Polar Lipids (Alabaster, Ala., USA) and consisted of 20 mol % phosphatidylserine (PS), 20 mol % phosphatidylethanolamine (PE) and 60 mol % phosphatidylcholine (PC) and were prepared by extrusion method (9,10). Kaolin light (hydrated aluminium silicate) was obtained from Baker Harrison ltd, (Ilford, UK).
Hepes-buffered saline contained 20 mM Hepes (Sigma Aldrich, l'Ile d'Abeau Chesnes, France), 140 mM NaCl and 5 mg/mL bovine serum albumin (BSA) (Euromedex, Souffelweyersheim, France), pH 7.35. This buffer was stored at −20° C. until use. A fresh mixture of fluorogenic substrate and CaCl2 was prepared before each experiment. Fluorogenic substrate, Z-Gly-Gly-Arg-AMC, was obtained from Bachem (Bubendorf, Switzerland). The mixture of fluorogenic substrate 2.5 mM and CaCl2 0.1 M was prepared using buffer containing Hepes 20 mM and 60 mg/mL BSA, pH 7.35. The Calibrator with the activity of 600 nM human thrombin was obtained from Thrombinoscope BV (Maastricht, The Netherlands). Transparent, round bottom Greiner microtiter plates (Greiner ref 65204, Poitiers, France) were used.
Thrombin generation was measured using Calibrated Automated Thrombography (CAT) according to the methodology of WO2003/093831 and a 96-well plate fluorometer (Fluoroscan Ascent Reader, Thermolab systems OY, Helsinki, Finland) equipped with a 390/460 nm filter set. Briefly, 80 μL of plasma is dispensed into the wells of round-bottom 96 well-microtiter plates. 20 μL of a mixture containing tissue factor and phospholipids is added to the PPP sample; alternatively, in order to obtain contact activation, the citrated plasma is preincubated for at least 10 min with 1 mg/ml of Kaolin light. The starting reagent (20 μL per well) contains fluorogenic substrate and CaCl2. […] The most important parameters that can be derived from CAT are lag time, endogenous thrombin potential corresponding to the area under the CAT curve, peak height of thrombin and time to peak.

Data set [1] addresses T1, h-FXIIa (Homo sapiens, UniProt P00748).
T1 construct: purchased Enzyme Research Laboratories FXIIa 1212A
T1 sequence (P00748 373-615 limits assumed): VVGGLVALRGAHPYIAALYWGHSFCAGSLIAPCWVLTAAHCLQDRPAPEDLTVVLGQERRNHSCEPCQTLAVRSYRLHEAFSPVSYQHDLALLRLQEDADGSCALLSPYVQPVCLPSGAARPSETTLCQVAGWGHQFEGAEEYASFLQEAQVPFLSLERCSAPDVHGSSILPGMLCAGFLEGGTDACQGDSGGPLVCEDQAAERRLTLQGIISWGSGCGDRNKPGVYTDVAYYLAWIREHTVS
T1 sequence (P00748 20-372 partner limits assumed): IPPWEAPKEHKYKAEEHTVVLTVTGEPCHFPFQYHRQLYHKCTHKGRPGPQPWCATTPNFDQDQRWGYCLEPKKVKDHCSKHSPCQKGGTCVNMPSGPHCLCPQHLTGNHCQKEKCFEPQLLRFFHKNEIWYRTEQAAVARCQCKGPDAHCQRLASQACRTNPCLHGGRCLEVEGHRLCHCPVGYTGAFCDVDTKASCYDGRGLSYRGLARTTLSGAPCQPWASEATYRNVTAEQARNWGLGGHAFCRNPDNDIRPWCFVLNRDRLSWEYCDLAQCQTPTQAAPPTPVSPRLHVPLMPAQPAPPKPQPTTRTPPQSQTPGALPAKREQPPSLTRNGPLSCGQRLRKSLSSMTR
Briefly: Effect of inhibitors on hydrolysis of S2302 by h-FXIIa. It counts as biochemical. Here is the method: Materials • S2302 From Chromogenic, lot # N0398718 SEQ0860, exp. date 2012-07. Water added on 7 Oct. […] On 3 Aug. […] Product code FXIIa 1212A, lot #FXIIa 2520PL. Bottle with 0.5 mg was reconstituted with 370 μl pure water. […] Buffer 4 mM NaAc, 150 mM NaCl (pH 5.3). Preparation was divided into 20 μl amounts and frozen at −80° C. • Hepes735 140 mM NaCl, 20 mM Hepes, 0.02% NaN3 (pH 7.35). • BSA5 Hepes735+5 mg/ml BSA. • CTI Prepared on 17 Dec. 2004, 0.141 mg/ml, i.e. 0.141/12028=11.7*10^−6 M (11.7 μM). One portion was thawed and divided into 3 parts. Part 1 was frozen at −80° C.; part 2 was kept at RT; and part 3 was incubated 30 min at 95° C. and then kept at RT.
Stock FXIIa was diluted 700× in BSA5. The inhibitor was diluted in BSA5 as indicated. Wells contained 70 μl diluted FXIIa (5 nM final), 70 μl inhibitor and 20 μl S2302 (475 or 462.5 μM final). The reaction was started after 5 min heating on the heating plate with S2302. Filters 405 nm and 490 nm reference. Found mΔA/min was multiplied by 2.14 to get the figure for a 1 cm path.
The residual activity (V) was fitted against the PTI concentration with equation:
(§1) V=(E+(sqrt(Ê2+2*E*(Ki−I)+Î2+2*I*Ki+Kî2)−E−I−Ki)/2)*kcat*S/(Km+S)
(§2) in which E=[FXIIa], Ki is the dissociation constant, I=[Inhibitor], kcat and Km are Michaelis constants and S=[S2302].

The target of data set [2] is T1, h-FXIIa. The experiment in a line: Stability of CTI, PTI and TICA at RT and at 95° C., read as inhibition of h-FXIIa. It counts as physicochemical. Here is the method: Materials • S2302 From Chromogenic, lot # N0398718 SEQ0860, exp. date 2012-07. Water added on 7 Oct. […] On 3 Aug. […] Product code FXIIa 1212A, lot #FXIIa 2520PL. Bottle with 0.5 mg was reconstituted with 370 μl pure water. […] Buffer 4 mM NaAc, 150 mM NaCl (pH 5.3). Preparation was divided into 20 μl amounts and frozen at −80° C. • Hepes735 140 mM NaCl, 20 mM Hepes, 0.02% NaN3 (pH 7.35). • BSA5 Hepes735+5 mg/ml BSA. • CTI Prepared on 17 Dec. 2004, 0.141 mg/ml, i.e. 0.141/12028=11.7*10^−6 M (11.7 μM). One portion was thawed and divided into 3 parts. […]
Stock FXIIa was diluted 700× in BSA5. The inhibitor was diluted in BSA5 as indicated. Wells contained 70 μl diluted FXIIa (5 nM final), 70 μl inhibitor and 20 μl S2302 (475 or 462.5 μM final). The reaction was started after 5 min heating on the heating plate with S2302. Filters 405 nm and 490 nm reference. Found ΔmA/min was multiplied by 2.14 to get the figure for a 1 cm path.
The residual activity (V) was fitted against the inhibitor concentration with equation:
as §1, §2
To calculate the concentration of I the equation I=x·(x−E−Ki)/(x−E) was used. In this equation is I the calculated inhibitor concentration, x=the residual activity of FXIIa (free FXIIa), E the total FXIIa concentration (=9.33 nM), and Ki the dissociation or inhibitor constant.

[3] abbreviates: ki F.XIIa (ng/ml), Before heating.

In the case of `CC[C@H](C)[C@@H]1NC(=O)[C@@H]2CSSC[C@H](NC(=O)[C@@H](NC(=O)[C@@H](N)CCCNC(=N)N)C(C)C)C(=O)N3CCC[C@H]3C(=O)N[C@@H](CCCCN)C(=O)N[C@@H]([C@@H](C)CC)C(=O)N[C@@H](CC(C)C)C(=O)N[C@@H](CCSC)C(=O)N[C@@H](CCC(=O)O)C(=O)N[C@H]3CSSC[C@H](NC1=O)C(=O)N[C@@H](CC(C)C)C(=O)N[C@@H](CCC(=O)O)C(=O)N[C@@H](Cc1c[nH]cn1)C(=O)NCC(=O)N[C@@H](Cc1ccc(O)cc1)C(=O)N[C@H](C(=O)NCC(=O)O)CSSC[C@H](NC(=O)[C@H](CC(=O)O)NC(=O)[C@H](CO)NC(=O)[C@H](CC(=O)O)NC(=O)[C@H](CCCCN)NC(=O)[C@H](CCCCN)NC3=O)C(=O)N[C@@H](CC(C)C)C(=O)N[C@@H](C)C(=O)N[C@@H](CCC(=O)O)C(=O)N2` [TICA4] (H-RVCPKILMECKKDSDCLAECICLEHGYCG-OH; disulfide 3-20, 10-22, 16-28 (inferred); N-terminus and C-terminus assumed), the “4 × lag-time (ng/ml)” value in the data set with contact activation (After heating) is 102.9 ng/mL; in the data set on contact activation (Before heating), 102.7 ng/mL. Also, the “4 × lag-time (μM)” value was 31.4 µM with contact activation (After heating) and 31.6 µM in the data set with contact activation (Before heating). Besides, the Ki is 1420 nM at h-FXIIa [1] (ki F.XIIa (nM), Before heating) and 1420 nM at h-FXIIa [1] (setting [3]). In addition, the “Res. Act. (%)” value turned out to be 94% at h-FXIIa [2] (inhibitor 30 min 95° C.), 98% at h-FXIIa [2] (inhibitor at RT during 72 hrs) and 100% at h-FXIIa [2] (inhibitor kept at −80° C.).

On to `CC[C@H](C)[C@@H]1NC(=O)[C@H](CCCNC(=N)N)NC(=O)[C@@H]2CCCN2C(=O)[C@@H](NC(=O)[C@@H](NC(=O)[C@@H](N)CCCNC(=N)N)C(C)C)CSSC[C@@H]2NC(=O)[C@H](CCC(=O)O)NC(=O)[C@H](C)NC(=O)[C@H](CC(C)C)NC(=O)[C@@H]3CSSC[C@@H](C(=O)NCC(=O)O)NC(=O)[C@H](Cc4ccc(O)cc4)NC(=O)CNC(=O)[C@H](Cc4c[nH]cn4)NC(=O)[C@H](CCC(=O)O)NC(=O)[C@H](CC(C)C)NC(=O)[C@H](CSSC[C@H](NC(=O)[C@H](CCC(=O)O)NC(=O)[C@H](CCSC)NC(=O)[C@H](CC(C)C)NC1=O)C(=O)N[C@@H](CCCCN)C(=O)N[C@@H](CCCCN)C(=O)N[C@@H](CC(=O)O)C(=O)N[C@@H](CO)C(=O)N[C@@H](CC(=O)O)C(=O)N3)NC(=O)[C@H](C(C)C)NC2=O` [TICA2] (H-RVCPRILMECKKDSDCLAECVCLEHGYCG-OH; disulfide 3-20, 10-22, 16-28 (inferred); N-terminus and C-terminus assumed), for which the results for the “4 × lag-time (ng/ml)” value with contact activation (After heating) and in the data set with contact activation (Before heating) were 31.9 ng/mL and 31.1 ng/mL, respectively. Moreover, the results for the “4 × lag-time (μM)” value in the data set on contact activation (After heating) and with contact activation (Before heating) were 9.8 µM and 9.6 µM, respectively. Further, the Ki was 109 nM on h-FXIIa [1] (Ki, Table 2, inhibitory activity of different polypeptides) and 109 nM at h-FXIIa [1] (setting [3]). Further, the “Res. Act. (%)” value on h-FXIIa [2] (inhibitor 30 min 95° C.) was 99%; at h-FXIIa [2] (inhibitor at RT during 72 hrs), 105%; on h-FXIIa [2] (inhibitor kept at −80° C.) it was 100%.
